Measured values from patent US11117915B2, “Antibacterial aminoglycoside analogs” (Cipla USA, Inc., priority 2007, dated 2021).
Converted amounts (≈) assume the structure as drawn. Read-outs that look alike come from different tables or passages of the source.

Tests used:
P. aeruginosa ATCC 27853 [1] = test: murine septicemia model of infection, P. aeruginosa; type: in vivo; details: mice inoculated IP, single SC or IV dose 1 hour after challenge, mortality 7 days; ED50 values are mg/kg
Experimental: (§1) Two models were run on each compound, using E. coli and P. aeruginosa QC bacterial strains. Both studies employed the same design. […] At 1 hour after bacterial challenge, the mice received a single SC or IV […] dose of vehicle or test substance to assess in vivo anti-infective activity. Mortality was recorded once daily for 7 days after bacterial inoculation.

P. aeruginosa ATCC 27853 [2] = test: MIC assay, CLSI broth microdilution, P. aeruginosa ATCC 27853 (APAE001); type: cell-based; details: for MIC: Pseudomonas aeruginosa
Outline: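 CLSI M7-A7 broth microdilution; 2-fold serial dilutions in Mueller Hinton Broth, 1:1 with inoculum; final 5×10^5 CFU/mL; 35° C., 20 h, ambient air. QC strains E. coli ATCC 25922, P. aeruginosa ATCC 27853, S. aureus ATCC 29213.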

E. coli ATCC 25922 [3] = test: MIC assay, CLSI broth microdilution, E. coli ATCC 25922 (AECO001); type: cell-based; details: for MIC: Escherichia coli
Outline: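 Bacteria from overnight agar colonies, suspended in saline, added to serial two-fold dilutions in Mueller Hinton Broth at 5×10^5 CFU/mL final. Incubation 35° C., 20 hours, ambient air, per CLSI M7-A7 reference method.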

E. coli ATCC 25922 [4] = test: murine septicemia model of infection, E. coli; type: in vivo; details: mice inoculated IP, single SC or IV dose 1 hour after challenge, mortality 7 days; ED50 values are mg/kg
Experimental: as §1

[5] = ATCC27853, Table 2, read-out: MIC P. aeruginosa
[6] = APAE001 is ATCC27853, 35° C., 20 hours, read-out: MIC APAE001
[7] = AECO001 is ATCC25922, 35° C., 20 hours, read-out: MIC AECO001
[8] = ATCC27853, 20 h, read-out: MIC APAE001
[9] = ATCC25922, 20 h, read-out: MIC AECO001

Molecule | ED50/MIC P. aeruginosa (P. aeruginosa ATCC 27853 [1]) | MIC (P. aeruginosa ATCC 27853 [2]; [5]) | MIC (P. aeruginosa ATCC 27853 [2]; [6]) | MIC (E. coli ATCC 25922 [3]; [7]) | ED50/MIC E. Coli (E. coli ATCC 25922 [4]) | MIC (E. coli ATCC 25922 [3]; ATCC25922, Table 2, read-out: MIC E. coli) | MIC P. aeruginosa (P. aeruginosa ATCC 27853 [2]; Table 2) | MIC E. coli (E. coli ATCC 25922 [3]; Table 2) | MIC (P. aeruginosa ATCC 27853 [2]; [8]) | MIC (E. coli ATCC 25922 [3]; [9])
CN[C@@H]1[C@@H](O)[C@@H](O[C@@H]2[C@@H](O)[C@H](O[C@H]3OC(CN)=CC[C@H]3NC3CNC3)[C@@H](N)C[C@H]2NC(=O)[C@@H](O)CCN)OC[C@]1(C)O [Example 96, 2′-(Azetidin-3-yl)-1-(4-amino-2(S)-hydroxy-butyryl)-sisomicin] | 3 | 1 to 16 µg/mL (≈ 1.66 to 26.5 µM) | 1 to 16 µg/mL (≈ 1.66 to 26.5 µM) | < 1 µg/mL | – | – | – | – | – | –
CN[C@@H]1[C@@H](O)[C@@H](O[C@@H]2[C@@H](O)[C@H](O[C@H]3OC(CNCC4CCNCC4)=CC[C@H]3N)[C@@H](N)C[C@H]2NC(=O)[C@@H](O)CN)OC[C@]1(C)O [Example 15, 6′-(Methyl-piperidin-4-yl)-1-(3-amino-2(S)-hydroxy-propionyl)-sisomicin] | 1 | 1 to 16 µg/mL (≈ 1.58 to 25.3 µM) | 1 to 16 µg/mL (≈ 1.58 to 25.3 µM) | < 1 µg/mL | – | – | – | – | – | –
NCC[C@H](O)C(=O)N[C@@H]1C[C@H](N)[C@@H](O[C@H]2O[C@H](CN)[C@@H](O)[C@H](O)[C@H]2O)[C@H](O)[C@H]1O[C@H]1O[C@H](CO)[C@@H](O)[C@H](N)[C@H]1O [Amikacin, amikacin, reference compound] | 13 | 1 to 16 µg/mL (≈ 1.71 to 27.3 µM) | – | – | 1.5 | 1 to 16 µg/mL (≈ 1.71 to 27.3 µM) | – | – | – | –
gentamicin [reference compound] | 12 | – | – | – | 2.4 | – | A (MIC's of 1.0 μg/mL or less = A) | A (MIC's of 1.0 μg/mL or less = A) | – | –
CN[C@@H]1[C@@H](O)[C@@H](O[C@@H]2[C@@H](O)[C@H](O[C@H]3OC(CNCCCN)=CC[C@H]3N)[C@@H](N)C[C@H]2NC(=O)[C@@H](O)CN)OC[C@]1(C)O [Example 17, 6′-(3-Amino-propyl)-1-(3-amino-2(S)-hydroxy-propionyl)-sisomicin] | 5 | 1 to 16 µg/mL (≈ 1.69 to 27 µM) | 1 to 16 µg/mL (≈ 1.69 to 27 µM) | < 1 µg/mL | 1 | – | – | – | – | –
CN[C@@H]1[C@@H](O)[C@@H](O[C@@H]2[C@@H](O)[C@H](O[C@H]3OC(CNCCO)=CC[C@H]3N)[C@@H](N)C[C@H]2NC(=O)[C@@H](O)CN)OC[C@]1(C)O [Example 16, 6′-(2-Hydroxy-ethyl)-1-(3-amino-2(S)-hydroxy-propionyl)-sisomicin] | 3 | 1 to 16 µg/mL (≈ 1.73 to 27.6 µM) | 1 to 16 µg/mL (≈ 1.73 to 27.6 µM) | < 1 µg/mL | 1 | – | – | – | – | –
CN[C@@H]1[C@@H](O)[C@@H](O[C@@H]2[C@@H](O)[C@H](O[C@H]3OC(CNCC(O)CN)=CC[C@H]3N)[C@@H](N)C[C@H]2NC(=O)[C@@H](O)CN)OC[C@]1(C)O (stereo partly drawn) [Example 22, 6′-(3-Amino-2-hydroxy-propyl)-1-(3-amino-2(S)-hydroxy-propionyl)-sisomicin] | 8 | 1 to 16 µg/mL (≈ 1.65 to 26.3 µM) | 1 to 16 µg/mL (≈ 1.65 to 26.3 µM) | 1 to 16 µg/mL (≈ 1.65 to 26.3 µM) | 1 | – | – | – | – | –
CN[C@@H]1[C@@H](O)[C@@H](O[C@@H]2[C@@H](O)[C@H](O[C@H]3OC(CN)=CC[C@H]3NC(=N)N)[C@@H](N)C[C@H]2NC(=O)[C@@H](O)CCN)OC[C@]1(C)O [Example 103, 2′-Guanidinium-1-(4-amino-2(S)-hydroxy-butyryl)-sisomicin] | 6 | < 1 µg/mL | < 1 µg/mL | < 1 µg/mL | 2 | – | – | – | – | –
CN[C@@H]1[C@@H](O)[C@@H](O[C@@H]2[C@@H](O)[C@H](O[C@H]3OC(CNCCCN)=CC[C@H]3N)[C@@H](N)C[C@H]2NC(=O)C2(O)CNC2)OC[C@]1(C)O [Example 57] | 14 | < 1 µg/mL | < 1 µg/mL | < 1 µg/mL | 2 | – | – | – | – | –
CN[C@@H]1[C@@H](O)[C@@H](O[C@@H]2[C@@H](O)[C@H](O[C@H]3OC(CNCCO)=CC[C@H]3N)[C@@H](N)C[C@H]2NC(=O)[C@@H](O)CCN)OC[C@]1(C)O [Example 1, 6′-(2-Hydroxy-ethyl)-1-(4-amino-2(S)-hydroxy-butyryl)-sisomicin] | 4 | 1 to 16 µg/mL (≈ 1.69 to 27 µM) | 1 to 16 µg/mL (≈ 1.69 to 27 µM) | < 1 µg/mL | <2 | – | – | – | – | –
CN[C@@H]1[C@@H](O)[C@@H](O[C@@H]2[C@@H](O)[C@H](O[C@H]3OC(CNCC4(N)CCC4)=CC[C@H]3N)[C@@H](N)C[C@H]2NC(=O)[C@@H](O)CN)OC[C@]1(C)O [Example 56, 6′-(Methyl-1-amino-cyclobutyl)-1-(3-amino-2(S)-hydroxy-propionyl)-sisomicin] | – | – | – | – | – | – | – | – | > 16 µg/mL | < 1 µg/mL
CN[C@@H]1[C@@H](O)[C@@H](O[C@@H]2[C@@H](O)[C@H](O[C@H]3OC(CNCC4(O)CCNCC4)=CC[C@H]3N)[C@@H](N)C[C@H]2NC(=O)[C@@H](O)CCN)OC[C@]1(C)O [Example 31] | – | – | – | – | – | – | – | – | 1 to 16 µg/mL (≈ 1.51 to 24.2 µM) | 1 to 16 µg/mL (≈ 1.51 to 24.2 µM)
